Experimental data from article PMC2994263 (Chemical biology & drug design, 2010).

What was measured:
[1] = tested on: NFκB p65 (Ser536) phosphorylation by AngII; assay: NFκB p65 phosphorylation; type: cell-based, human; details: 10 nM AngII, 5 min
[2] = tested on: AT1 receptor; assay: Phosphoinositide; type: cell-based, human
[3] = tested on: Akt/PKB (Ser473) phosphorylation by AngII via endogenous AT1 receptor; assay: Akt/PKB phosphorylation; type: cell-based, human; details: 10 nM AngII, 5 min
[4] = tested on: AT1 receptor; assay: Calcium mobilization in AT1-transfected HEK-293 cells; type: cell-based, human; details: 10 nM AngII, Fura-2/AM fluorescence
[5] = tested on: ERK1/2 activation by AngII; assay: ERK1/2 phosphorylation; type: cell-based, human; details: 10 μM peptide; 10 nM AngII, 5 min; western blot; average of three gels
[6] = tested on: AT1 receptor; details: AT1 cDNA transfected HEK-293 cells; ref [10]; cited from earlier work
[7] = tested on: mutant AT1 receptor containing the IC2 of the BKB2R; details: HEK-293 cells, ref [10]; cited from earlier work
[8] = tested on: bradykinin B2 receptor; details: bradykinin B2 receptor cDNA transfected cells; ref [10]; cited from earlier work

With “GRKKRRQRRRPPQGGVKTMSMGRMRG [control peptide]” the “effect on AngII dependent NFκB activation / p65 phosphorylation (in words)” value ([1]; 10 μM peptide) was “no inhibitory effect”, the “effect on AngII induced PI turnover (in words)” value ([2]; 10 μM peptide, 30 min before 10 nM AngII) was “unhindered” and the “effect on AngII induced Akt phosphorylation (in words)” value ([3]; 10 μM peptide) was “no effect”. For the same substance, the “effect on AngII promoted Ca2+ entry (in words)” value ([4]; 10 μM peptide) was “no effect” and the “effect on ERK1/2 activation by AngII (in words)” value [5] was “neither the control peptide nor the IC2 peptide at 10 μM affected the activation of this MAP kinase by AngII”.

For “Angiotensin II (DRVYIHPF; Angiotensin-2; UniProt P01019 25-32, looked up) [AngII]”, the “Akt phosphorylation (in words)” value [6] is given as “increases Akt phosphorylation”, the “pAkt (in words)” value [7] is given as “decreased pAkt” and the “Ser536 phosphorylation of p65 by AngII (in words)” value ([1]; no peptide) is given as “clearly enhanced”. For the same substance, the “PI turnover induced by AngII (in words)” value ([2]; 10 nM AngII, 30 min at 37°C, no peptide) was “induced a marked PI turnover”, the “activation of Akt/PKB by AngII (in words)” value ([3]; no peptide) was “sizable activation of Akt/PKB” and the “calcium influx caused by AngII (in words)” value ([4]; no peptide) was “strong calcium influx”.

For bradykinin, the “Akt phosphorylation (in words)” value [8] is given as “decreases it”.

For “GRKKRRQRRRPPQGGVHPMKSRLRRT [AT1 IC2 peptide]”, the “effect on ERK1/2 activation by AngII (in words)” value [5] was “no effect”.
